The results in this text go back to PubChem BioAssay (NCI).

Holding throughout (experiment): NCI-60 cell line screen, 48 h
For experiment [1], the system named is NCI/ADR-RES ovarian.
In experiment [2] the test system is HCT-116 colon.
Experiment [3] deals with SN12C renal.
Experiment [4] deals with SF-268 CNS.
The test system of experiment [5] is NCI-H460 lung.
The test system of experiment [6] is ACHN renal.
The subject of experiment [7] is K-562 leukemia.
The test system of experiment [8] is OVCAR-3 ovarian.
For experiment [9], the system named is U251 CNS.
For experiment [10], the system named is HS 578T breast.

Each structure is given as a SMILES string. Values joined by “and” are separate entries in the source; they are usually repeats but may differ in a detail not shown here. Equal values may be shown once.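 In this assay, cells in 96-well plates receive the compound at five concentrations for 48 hours. Endpoints are linearly interpolated between the surrounding concentrations. GI50 = concentration required for 50% inhibition of growth. TGI is the concentration that stops growth completely.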

For the molecule `COc1ccc(OC)c(-c2cc(C(=O)O)c3cc4ccccc4cc3n2)c1`, the TGI in [1], in experiment [2], in experiment [3], in experiment [4], in [5] and in experiment [6] was greater than 100 µM throughout. Further, the TGI in [7], in experiment [8], in experiment [9] and in experiment [10] was greater than 100 µM throughout.

`Nc1ncnc2c1c(C(=O)NO)cn2C1OC(CO)C(O)C1O` (stereo not drawn): the GI50 in experiment [1] was 0.137 µM; in [2], 0.175 µM; in experiment [3], 0.244 µM; in [4] it was 0.397 µM; in experiment [5], 0.431 µM; in experiment [6], 0.203 µM. Moreover, the GI50 in [7] was 0.79 µM; in experiment [8] it was 0.278 µM; in experiment [9], 0.419 µM; in experiment [10], 0.331 µM. The TGI in [2] is greater than 23.8 µM; in experiment [3], 1.24 µM; in [5], 9.19 µM; in [6], 1.15 µM; in [7] it was greater than 100 µM; in experiment [8], 2.42 µM. Moreover, the results for the TGI in experiment [9] and in [10] were greater than 100 µM and 3.54 µM, respectively.

Take `O=C(OC(CNc1c(C(=O)c2ccccc2)c(=O)n(Cc2ccccc2)c(=O)n1Cc1ccccc1)CN1CCCCC1)c1ccccc1` (stereo not drawn): the GI50 in experiment [1] is 17.6 µM; in [2] it was 14.9 µM; in [3], 19.3 µM; in experiment [4], 24.1 µM; in experiment [5], 21.1 µM; in [6] it was 30.1 µM. Moreover, the GI50 in experiment [7] was 14.9 µM; in experiment [8] it was 18 µM; in [9] it was 15.2 µM; in experiment [10], 42 µM. Further, the TGI in [1] was 34.5 µM; in experiment [2], 28.1 µM; in experiment [3], 36.9 µM; in experiment [4] it was 53.2 µM; in experiment [5] it was 46.7 µM; in [6] it was greater than 100 µM. In addition, the TGI is 31.3 µM in [7], 35.2 µM in experiment [8], 29 µM in [9] and greater than 100 µM in [10].

`NCC(=O)NC(CO)C(=O)O` (stereo not drawn): the TGI in experiment [1], in experiment [2], in experiment [3], in experiment [4], in experiment [5] and in [6] was greater than 100 µM each time. Also, the TGI in experiment [7], in [8], in experiment [9] and in [10] was greater than 100 µM in each case.

Consider `O=[N+]([O-])c1ccc(NN=C2c3ccccc3Cc3ccccc32)c([N+](=O)[O-])c1`, for which the TGI in experiment [1], in experiment [2], in [3], in experiment [4], in experiment [5] and in [6] was greater than 100 µM in each case. Moreover, the TGI in [7] was greater than 100 µM; in experiment [8], 5.19 µM; in [9], greater than 100 µM; in [10], greater than 80.4 µM.

For `COc1ccc(NC(=O)CC(=O)n2nc(-c3ccccc3)c(N=Nc3ccccc3C)c2-c2ccccc2)cc1`, the TGI in [1] was greater than 100 µM; in [2], 47.9 µM; in experiment [3] it was greater than 88.5 µM; in [4], 35.7 µM; in experiment [5], 53.5 µM; in [6], 63.7 µM. For the same molecule, the TGI was greater than 100 µM in experiment [7], 33.3 µM in experiment [8], 35.3 µM in [9] and 35.6 µM in [10].

With `COc1cccc2cc(-c3nc(C4CCC(C(=O)O)CC4)n4ncnc(N)c34)[nH]c12` (stereo not drawn), the GI50 was 0.406 µM and 0.804 µM in experiment [1]; 0.824 µM and 1.08 µM in experiment [2]; 0.203 µM and 0.413 µM in experiment [3]; 0.294 µM and 0.301 µM in experiment [4]; 0.253 µM and 0.445 µM in experiment [5]; 0.42 µM and 1.03 µM in [6]. The GI50 in experiment [7] was 0.499 µM and 2.63 µM; in [8], 0.253 µM and 0.394 µM; in [9] it was 0.666 µM and 1.26 µM; in experiment [10] it was 0.135 µM and 0.11 µM. Besides, the TGI in [1] was 10.3 µM and > 10 µM; in [2] it was greater than 100 µM; in [3], greater than 100 µM; in [4] it was 19.5 µM and > 10 µM; in experiment [5] it was 17.7 µM and > 10 µM; in experiment [6], 15.5 µM and > 10 µM. Also, the TGI was greater than 100 µM in [7]; 4.27 µM and > 7.87 µM in [8]; greater than 100 µM in [9]; 0.627 µM and 0.979 µM in experiment [10].

Consider `Cc1cccc2c1ccc1c3occ(C)c3c(=O)oc21`, for which the GI50 in experiment [1] is greater than 100 µM; in [2] it was greater than 100 µM; in [3], greater than 100 µM; in [4], greater than 100 µM; in [5] it was 93.1 µM; in [6], greater than 100 µM. Moreover, the GI50 in experiment [7], in experiment [8], in experiment [9] and in [10] was greater than 100 µM each time. Moreover, the TGI in [1], in [2], in experiment [3], in experiment [4], in [5] and in experiment [6] was greater than 100 µM in each case. The TGI in [7], in experiment [8], in experiment [9] and in experiment [10] was greater than 100 µM in each case.

On to `CC(C)NCCCCCNc1cc(O)cc2cccnc12`, for which the GI50 was greater than 100 µM in experiment [1]; 67.9 µM in experiment [2]; greater than 100 µM in experiment [3]; greater than 100 µM in [4]; greater than 100 µM in [5]; greater than 100 µM in [6]. Also, the GI50 in experiment [7] is greater than 100 µM; in experiment [8], 2.43 µM; in experiment [9], greater than 100 µM; in [10], greater than 42.5 µM. Further, the TGI in [1], in experiment [2], in [3], in experiment [4], in experiment [5] and in experiment [6] was greater than 100 µM throughout. The TGI in [7] was greater than 100 µM; in experiment [8], 9.37 µM; in experiment [9], greater than 100 µM; in [10] it was greater than 100 µM.

Turning to `C/C=C(\C)C(=O)OC1C2C(C)C(=O)OC2C(O)C(C)C2C=CC(=O)C21C` (stereo not drawn), the TGI turned out to be 49.9 µM in [1]; 22.6 µM in experiment [2]; 43.1 µM in [3]; 56.5 µM in experiment [4]; 20.6 µM in experiment [5]; 26.8 µM in experiment [6]. For the same molecule, the TGI in experiment [7] is 17.4 µM; in experiment [8], 23.7 µM; in [9], 24.6 µM; in experiment [10], greater than 64.7 µM.
